Patent US8338599B2, “Compounds having a potentiating effect on the activity of ethionamide and uses thereof” (priority 2006, dated 2012)
In brackets after ≈: the same amount, converted by molar mass. Read-outs that look alike come from different tables or passages of the source.

Tests used:
M. bovis BCG = assay type: cell-based, M. bovis BCG 1173P2; settings: from MIC of ETH alone (6 μM) and MIC of ETH with 25 μM compound
EthR protein [1] = target: T1, EthR protein (Mycobacterium tuberculosis, UniProt P9WMC1); experiment: Inhibition of interaction of EthR with its target DNA sequence (BIAcore); assay type: binding, M. tuberculosis H37Rv; settings: compound 3 μM, EthR 540 nM, 37° C.
T1 sequence (P9WMC1 whole entry, looked up): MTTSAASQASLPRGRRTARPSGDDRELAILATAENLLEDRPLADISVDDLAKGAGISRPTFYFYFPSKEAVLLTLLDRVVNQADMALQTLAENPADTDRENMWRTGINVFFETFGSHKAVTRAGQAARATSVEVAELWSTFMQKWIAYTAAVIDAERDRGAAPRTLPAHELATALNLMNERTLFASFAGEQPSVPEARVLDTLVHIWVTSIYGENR
Experimental: a) Measurement of the Activity of the Compounds on the Inhibition of Interaction of EthR with its Target DNA Sequence
The in vitro measurements of inhibition of binding of the EthR protein to its target DNA sequence were performed on a machine of BIAcore®2000 type (AB, Uppsala, Sweden).
The chips used are CM5 chips sold by the company GE Healthcare. Both the channels of a chip were activated with a solution containing 200 mM of EDC(N-ethyl-N′-(3-[…])carbodiimide) and 50 mM of NHS (N-hydroxysuccinimide). Next, streptavidin (500 ng/μl in a solution containing 10 mM of sodium acetate (pH 3.5) was injected over 12 minutes at a flow rate of 10 μl/minute. The 106-base-pair biotinylated DNA fragment corresponding to the ethA-R intergene region was deposited on one of the two channels of the chip at a rate of 200 ng/ml in order to obtain stable binding of streptavidin corresponding to 50 RU (resonance units). This DNA fragment was obtained by PCR using the chromosomal DNA of M. tuberculosis H37Rv as matrix and O-270: 5′-[…]-3′ (SEQ ID: No. 1) and O-271: 5′-biotin-[…]-3′ (SEQ ID: No. 2). The second channel was functionalized with a 113-base-pair biotinylated DNA fragment (fragment +14 to +127 of the bla gene of E. coli PCR-amplified using the following oligonucleotides: O-343: 5′-[…]-3′ (SEQ ID: No. 3) and O-344: 5′-biotin-[…]-3′ (SEQ ID: No. 4).
Measurement of the binding of the EthR protein to the immobilized DNA was performed at 37° C. in a reference buffer containing 10 mM of Tris-HCl (pH=7.5), 200 mM of NaCl, 0.1 mM of EDTA, 1 mM of DTT and 1% of DMSO at a flow rate of 20 μl/minute. The specific interaction (SI) of EthR with the 106-base-pair double-stranded DNA sequence, expressed in resonance units, corresponds to the difference in signal observed between the two channels.
For each inhibition measurement, the compounds of the invention are dissolved in the reference buffer at a concentration of 3 μM. The compounds of the invention are then incubated in the presence of the protein (540 nM) at 37° C. for 5 minutes, and each solution is then injected onto the two channels of the chip for 3 minutes at a flow rate of 20 μl/minute. The inhibition values are calculated at the end of the injection according to the following equation: […]
in which SIEthR corresponds to the value measured without ligand and SIEthR+ligand corresponds to the value measured in the presence of to ligand.

[2] = Measurement of the solubility (PBS pH 7.4 vs methanol, LC/MS); assay type: physicochemical; settings: pH 7.4, aqueous buffer, kinetic from dmso stock
Experimental: e) Measurement of the Solubility of the Compounds of the Invention
40 μl of a solution containing a compound of the invention at a concentration of 10 mM in DMSO were diluted in 1.960 ml of methanol, and another 40 μl were diluted in 1.960 ml of a PBS solution containing 675 mM of NaCl, 13.5 mM of KCl, 50 mM of Na2HPO4.2H2O and 10 mM of KH2PO4 at a pH of 7.4. The two solutions were stirred for 24 hours at room temperature, and then centrifuged for 5 minutes and filtered through 0.45 μm filters. 20 μl of each solution were then diluted in 118 μl of methanol and analyzed by liquid chromatography coupled to mass spectrometry (LC/MS). The solubility was determined by the ratio of the areas under the curve of the mass signal for the compound of the invention, according to the following equation: […]

EthR protein [3] = target: T1, EthR protein; experiment: In vitro measurement of the IC50 (EthR/DNA binding, BIAcore); parameters: species or system M. tuberculosis H37Rv
Experimental: b) In Vitro Measurement of the IC50 of the Compounds of the Invention.
The in vitro measurement of this datum was performed according to the same principle as for the measurement of inhibition of the EthR/DNA binding using the BIAcore technique.
The specific interaction between EthR and the specific 106-bp DNA fragment was measured on a range of six concentrations of the compounds of the invention, this range extending from 0.11 μM to 27 μM. The IC50 values are then extrapolated from the sigmoid curves obtained.

[4] = six concentrations from 0.11 μM to 27 μM, read-out: IC50

| Compound | Potentiation % (M. bovis BCG) [%] | inhibition at 3 µM (EthR protein [1]) [%] | solubility at 24 h [2] [µg/mL] | IC50 (EthR protein [3]; [4]) [nM] | IC50 (EthR protein [3]) [nM] |
| --- | --- | --- | --- | --- | --- |
| [N-]=[N+]=NCC(=O)N1CCC(c2nc(-c3ccsc3)no2)CC1 [Compound 3, 2-azido-1-[4-(3-thiophen-3-yl[1,2,4]oxadiazol-5-yl)piperid-1-yl]ethanone] | 500 | 14 |  |  |  |
| [N-]=[N+]=NCC(=O)N1CCC(c2nc(-c3ccccc3)no2)CC1 [Compound 4, 2-azido-1-[4-(3-phenyl[1,2,4]oxadiazol-5-yl)piperid-1-yl]ethanone] | 500 | 15 |  |  |  |
| [N-]=[N+]=NCC(=O)N1CCC(c2nc(-c3ccc(F)cc3)no2)CC1 [Compound 5, 2-azido-1-{4-[3-(4-fluorophenyl)[1,2,4]oxadiazol-5-yl]piperid-1-yl}ethanone] |  | 15 | 9 (≈ 27.2 µM) |  |  |
| [N-]=[N+]=NCC(=O)N1CCC(c2nc(-c3ccc4c(c3)OCO4)no2)CC1 [Compound 12, 2-azido-1-[4-(3-benzo[1,3]dioxol-5-yl[1,2,4]oxadiazol-5-yl)piperid-1-yl]ethanone] |  | 19 | 71 (≈ 199 µM) |  |  |
| COc1ccc2nc(-c3noc(C4CCN(C(=O)CN=[N+]=[N-])CC4)n3)sc2c1 [Compound 15] |  | 94 |  | 1560 |  |
| CC(=O)N1CCC(c2nc(-c3cccs3)no2)CC1 [Compound 17, 1-[4-(3-thiophen-2-yl[1,2,4]oxadiazol-5-yl)piperid-1-yl]ethanone] |  |  | 55.5 (≈ 200 µM) |  |  |
| C#CCCC(=O)N1CCC(c2nc(-c3cccs3)no2)CC1 [Compound 21, 1-[4-(3-thiophen-2-yl[1,2,4]oxadiazol-5-yl)piperid-1-yl]pent-4-yn-1-one] | 500 | 20 |  |  |  |
| CC(C)CCC(=O)N1CCC(c2nc(-c3cccs3)no2)CC1 [Compound 25, 4-methyl-1-[4-(3-thiophen-2-yl[1,2,4]oxadiazol-5-yl)piperid-1-yl]pentan-1-one] | 500 | 70 |  | 910 |  |
| O=C(CCC(F)(F)F)N1CCC(c2nc(-c3cccs3)no2)CC1 [Compound 27, 4,4,4-trifluoro-1-[4-(3-thiophen-2-yl[1,2,4]oxadiazol-5-yl)piperid-1-yl]butan-1-one] | 500 | 96 |  | 1570 |  |
| COCC(=O)N1CCC(c2nc(-c3cccs3)no2)CC1 [Compound 28, 2-methoxy-1-[4-(3-thiophen-2-yl[1,2,4]oxadiazol-5-yl)piperid-1-yl]ethanone] |  |  | 61.5 (≈ 200 µM) |  |  |
| O=C(O)CCC(=O)N1CCC(c2nc(-c3cccs3)no2)CC1 [Compound 31, 4-oxo-4-[4-(3-thiophen-2-yl[1,2,4]oxadiazol-5-yl)piperid-1-yl]butyric acid] |  |  | 67.1 (≈ 200 µM) |  |  |
| O=C(CCC1CCCC1)N1CCC(c2nc(-c3cccs3)no2)CC1 [Compound 34, 3-cyclopentyl-1-[4-(3-thiophen-2-yl[1,2,4]oxadiazol-5-yl)piperid-1-yl]propan-1-one] |  | 48 |  |  |  |
| O=C(CC1CCCC1)N1CCC(c2nc(-c3cccs3)no2)CC1 [Compound 35, 2-cyclopentyl-1-[4-(3-thiophen-2-yl[1,2,4]oxadiazol-5-yl)piperid-1-yl]ethanone] | 2500 | 52 |  | 1490 |  |
| O=C(CC1C=CCC1)N1CCC(c2nc(-c3cccs3)no2)CC1 (centres unmarked) [Compound 36, 2-cyclopent-2-enyl-1-[4-(3-thiophen-2-yl[1,2,4]oxadiazol-5-yl)piperid-1-yl]-ethanone] | 500 | 78 |  | 1000 |  |
| O=C(CC1CCCCC1)N1CCC(c2nc(-c3cccs3)no2)CC1 [Compound 37, 2-cyclohexyl-1-[4-(3-thiophen-2-yl[1,2,4]oxadiazol-5-yl)piperid-1-yl]ethanone] |  | 76 |  | 3490 |  |
| O=C(CC1CC2CCC1C2)N1CCC(c2nc(-c3cccs3)no2)CC1 (centres unmarked) [Compound 40, 2-bicyclo[2.2.1]hept-2-yl-1-[4-(3-thiophen-2-yl[1,2,4]oxadiazol-5-yl)piperid-1-yl]ethanone] |  | 59 |  |  |  |
| O=C(Cc1ccccc1)N1CCC(c2nc(-c3cccs3)no2)CC1 [Compound 41, 2-phenyl-1-[4-(3-thiophen-2-yl[1,2,4]oxadiazol-5-yl)piperid-1-yl]ethanone] |  | 45 |  |  |  |
| O=C(COc1ccccc1)N1CCC(c2nc(-c3cccs3)no2)CC1 [Compound 45, 2-phenoxy-1-[4-(3-thiophen-2-yl[1,2,4]oxadiazol-5-yl)piperid-1-yl]ethanone] | 2500 | 75 |  | 1500 |  |
| O=C(Nc1ccccc1)N1CCC(c2nc(-c3cccs3)no2)CC1 [Compound 48, 4-(3-thiophen-2-yl[1,2,4]oxadiazol-5-yl)piperidine-1-carboxylic acid phenylamide] |  | 56 | 0.86 (≈ 2.43 µM) |  | 1140 |
| S=C(Nc1ccccc1)N1CCC(c2nc(-c3cccs3)no2)CC1 [Compound 49, 4-(3-thiophen-2-yl[1,2,4]oxadiazol-5-yl)piperidine-1-carbothioic acid phenylamide] |  | 86 |  | 1340 |  |
| O=C(NC1CC1)N1CCC(c2nc(-c3cccs3)no2)CC1 [Compound 51, 4-(3-thiophen-2-yl[1,2,4]oxadiazol-5-yl)piperidine-1-carboxylic acid cyclopropylamide] |  | 13 | 272 (≈ 853 µM) |  |  |
| S=C(NC1CC1)N1CCC(c2nc(-c3cccs3)no2)CC1 [Compound 52, 4-(3-thiophen-2-yl[1,2,4]oxadiazol-5-yl)piperidine-1-carbothioic acid cyclopropylamide] |  | 61 |  |  |  |
| O=S(=O)(Cc1ccccc1)N1CCC(c2nc(-c3cccs3)no2)CC1 [Compound 53, 1-phenylmethanesulfonyl-4-(3-thiophen-2-yl[1,2,4]oxadiazol-5-yl)piperidine] |  | 34 |  |  |  |
| O=C(c1ccccc1)N1CCC(c2nc(-c3cccs3)no2)CC1 [Compound 54, phenyl[4-(3-thiophen-2-yl[1,2,4]oxadiazol-5-yl)piperid-1-yl]methanone] |  | 5 | 38.7 (≈ 114 µM) |  |  |
| O=C(CC1CC1)N1CCC(c2nc(-c3cccc(N(Cc4ccccc4)Cc4ccccc4)c3)no2)CC1 [Compound 57, 2-cyclopropyl-1-{4-[3-(3-dibenzylaminophenyl)[1,2,4]oxadiazol-5-yl]piperid-1-yl}ethanone] |  | 46 |  |  |  |
| O=C(Cc1cccs1)N1CCC(c2nc(-c3ccc(Br)s3)no2)CC1 [Compound 58, 1-{4-[3-(5-bromothiophen-2-yl)[1,2,4]oxadiazol-5-yl]piperid-1-yl}-2-thiophen-2-ylethanone] |  | 34 |  |  |  |
| N#CCC(=O)N1CCC(c2nc(-c3ccc(Br)s3)no2)CC1 [Compound 59, 3-{4-[3-(5-bromothiophen-2-yl)[1,2,4]oxadiazol-5-yl]piperid-1-yl}-3-oxo-propionitrile] |  | 77 |  | 390 |  |
